# Experimental data published in paper PMC5522460, “Crystal structure of a low molecular weight activator Blm-pep with yeast 20S proteasome – insights into the enzyme activation mechanism” (Scientific Reports, 2017).
# Where no end group is shown, it is not given here.
# Molecular target: human 20S proteasome (Homo sapiens, UniProt P25786+P28066)
# Experiment: Proteolytic stability assay with human 20S proteasome
# Assay type: in vitro ADME
# Conditions: 10 µM peptide, 0.025 mg/ml h20S, 25 mM Tris-HCl pH 8.0, 3 hours, 37 °C, RP-HPLC and MALDI TOF
# Method: Blm-pep was incubated either with human or yeast 20S proteasome. Both assays were conducted in 25 mM Tris-HCl buffer (pH 8.0, measured at 20 °C), which for y20S contained 0.25 mM EDTA as an additive. The peptide and proteasome concentrations in 100 μl final solution were 10 µM and 0.025 mg/ml, respectively. Incubation was carried out for 3 hours at 37 °C. The reaction was stopped by addition of 5 μl of 10% TFA. Results were analyzed using RP-HPLC and MALDI TOF. Prior to MS analysis the samples were desalted using C18 spin columns (Pierce).
sequence,measurement,value
KYFTGSKLWRSYYA [Blm-pep],proteolytic stability with human 20S proteasome,digested
